Experimental data published in US4775681A, “Method of treating fungal infections with trans-6-[2-substitutedpyrrol-1-yl)alkyl]-4-hydroxypyran-2-ones” (Warner-Lambert Company, priority 1987, dated 1988).
In brackets after ≈: the same amount, converted by molar mass. Counter-ions that a name gives are not always drawn.

Experiments:
Experiment in all cases: Antifungal susceptibility, microbroth dilution MIC
Type in all cases: cell-based
Candida tropicans = tested on: Candida tropicans
Description: (§1) The antimicrobial susceptibilities of eleven strains of Candida albicans, two strains of Candida tropicans, and one strain each of Torulopsis glabrata and Cryptococcus neoformans to several representative compounds of the present invention were tested. For comparison, the known antifungal agents amphotericin-B and ketoconazole were also tested. Minimal inhibitory concentrations (MIC's) for each compound were determined using the microbroth dilution technique described by S. Shadomy, et al, "Laboratory Studies with Antifungal Agents: Susceptibility Tests and Bioassays," pp. 991-999 in Manual Clin. Microbiol., 4th Ed., Amer. Soc. For Microbiol., Washington, D.C., 1985. The compounds tested are as follows and the results of the testing appear in the following Table.

Cryptococcus neoformans = settings: strain 1678, 24 hours
Description: as §1

Torulopsis glabrata = settings: Nakaseomyces glabratus; strain 1581; 24 hours
Description: as §1

Candida albicans = tested on: Candida albicans
Description: as §1

[1] = ATCC13803, strain ATCC 13803, 24 hours
[2] = ATCC10231, 24 h, strain ATCC 10231

Row | SMILES | MIC (Candida tropicans; [1]) [µg/mL] | MIC (Candida tropicans; strain 1573, 24 hours) [µg/mL] | MIC (Cryptococcus neoformans) [µg/mL] | MIC (Torulopsis glabrata) [µg/mL] | MIC (Candida albicans; 24 h, strain 1570) [µg/mL] | MIC (Candida albicans; 24 h, strain 1571) [µg/mL] | MIC (Candida albicans; 24 h, strain 1574) [µg/mL] | MIC (Candida albicans; 24 h, strain 1575) [µg/mL] | MIC (Candida albicans; 24 h, strain 1576) [µg/mL] | MIC (Candida albicans; 24 h, strain 1577) [µg/mL] | MIC (Candida albicans; 24 h, strain 1578) [µg/mL] | MIC (Candida albicans; 24 h, strain 1579) [µg/mL] | MIC (Candida albicans; 24 h, strain B4b) [µg/mL] | MIC (Candida albicans; 24 h, strain M752) [µg/mL] | MIC (Candida albicans; [2]) [µg/mL]
1 | C[C@@H]1[C@H](O)[C@@H](C)/C=C/C=C/C=C/C=C/C=C/C=C/C=C/[C@H](O[C@@H]2O[C@H](C)[C@@H](O)[C@H](N)[C@@H]2O)C[C@@H]2O[C@](O)(C[C@@H](O)C[C@@H](O)[C@H](O)CC[C@@H](O)C[C@@H](O)CC(=O)O[C@H]1C)C[C@H](O)[C@H]2C(=O)O [AMP-B, Amphotericin-B, reference compound] | 8 (≈ 8.66 µM) | 4 (≈ 4.33 µM) | 4 (≈ 4.33 µM) | 8 (≈ 8.66 µM) | 8 (≈ 8.66 µM) | 2 (≈ 2.16 µM) | 4 (≈ 4.33 µM) | 8 (≈ 8.66 µM) | 4 (≈ 4.33 µM) | 8 (≈ 8.66 µM) | 8 (≈ 8.66 µM) | 4 (≈ 4.33 µM) | 4 (≈ 4.33 µM) | 8 (≈ 8.66 µM) | 4 (≈ 4.33 µM)
2 | CC(C)c1c(Cl)c(Cl)c(-c2ccc(F)cc2)n1CC[C@@H](O)C[C@@H](O)CC(=O)O (relative stereo) [Compound 3, 3,4-Dichloro-2-(4-fluorophenyl)-β,δ-hydroxy-5-(1-methylethyl)-1H-pyrrole-1-heptanoic acid, monosodium salt] | 128 | 32 | 128 | 128 | 64 | 64 | 64 | 64 | 64 | 32 | 64 | 64 | 32 | 64 | 32
3 | CC(C)c1c(Br)c(Br)c(-c2ccc(F)cc2)n1CC[C@@H](O)C[C@@H](O)CC(=O)O (relative stereo) [Compound 1, 3,4-Dibromo-2-(4-fluorophenyl)-β,δ-dihydroxy-5-(1-methylethyl)-1H-pyrrole-1-heptanoic acid, monosodium salt] | 64 | 16 | 128 | 128 | 16 | 32 | 16 | 32 | 15 | 16 | 16 | 16 | 16 | 32 | 16
4 | CCOC(=O)c1c(Br)c(-c2ccc(F)cc2)n(CC[C@H]2C[C@H](O)CC(=O)O2)c1C(F)(F)F (relative stereo) [Compound 2, trans-4-Bromo-5-(4-fluorophenyl)-1[2-(tetrahydro-4-hydroxy-6-oxo-2H-pyran-2-yl)-ethyl]-2-(trifluoromethyl)-1H-pyrrole-3-carboxylic acid, ethyl ester] | 64 (≈ 123 µM) | 16 (≈ 30.6 µM) | 64 (≈ 123 µM) | 128 (≈ 245 µM) | 32 (≈ 61.3 µM) | 64 (≈ 123 µM) | 32 (≈ 61.3 µM) | 32 (≈ 61.3 µM) | 32 (≈ 61.3 µM) | 32 (≈ 61.3 µM) | 32 (≈ 61.3 µM) | 32 (≈ 61.3 µM) | 16 (≈ 30.6 µM) | 32 (≈ 61.3 µM) | 16 (≈ 30.6 µM)
5 | CC(=O)N1CCN(c2ccc(OCC3COC(Cn4ccnc4)(c4ccc(Cl)cc4Cl)O3)cc2)CC1 (stereo not drawn) [Keto, Ketoconazole, reference compound] | 0.5 (≈ 0.941 µM) | > 0.5 | > 0.5 | > 0.5 | 0.25 (≈ 0.47 µM) | 0.125 (≈ 0.235 µM) | 0.25 (≈ 0.47 µM) | 0.5 (≈ 0.941 µM) | > 0.5 | 0.125 (≈ 0.235 µM) | 0.25 (≈ 0.47 µM) | 0.5 (≈ 0.941 µM) | 0.25 (≈ 0.47 µM) | 0.25 (≈ 0.47 µM) | > 0.5
